This passage reports ED50 and IC50 results from patent publication US4563452A, “Derivatives of oxazinobenzothiazine-6,6-dioxide” (Provesan S.A., priority 1982, dated 1986).

Test [1] concerns oedema produced by carrageenin. The test is described as follows: Anti-inflammatory activity (inhibition of oedema produced by carrageenin), method of Winter. Particulars: Rattus norvegicus, oral, 1 hour before carrageenin, ED-50 = dose which reduces the oedema volume by 25%. Type of test: in vivo, Male rats of the Sprague-Dawley HC/CEY strain. On the procedure:
ANTI-INFLAMMATORY ACTIVITY (INHIBITION OF OEDEMA PRODUCED BY CARRAGEENIN)
Method developed by Winter (Winter, C. A., Risley, E. A. and Nuss, G. W. Proc. Soc. Exp. Biol. Med., […] (1962)).
Male rats of the Sprague-Dawley HC/CEY strain are used, weighing from 90 to 110 g. The products are administered suspended in 5% gum arabic, by an oral method using an oesophageal probe, 1 hour before a subplantar injection in the right foot of each animal of 0.1 ml of 1% carrageenin suspension in physiological serum (NaCl 0.9%). The control animals are given 5% gum arabic, the total volume which is used in every case amounting to 10 ml/kg.
The volume of each foot is measured immediately before the carrageenin injection (time 0), then three and five hours after this injection using a mercury plethysmograph.
The inflammation index is calculated for each animal after 3 hours (I3) and after 5 hours (I5) after the carrageenin injection by means of the following formulae: [formula] wherein: VO =volume of the foot at time zero (immediately before the administration of carrageenin)
V3 =volume of the foot 3 hours after the injection of carrageenin
V5 =volume of the foot 5 hours after the injection of carrageenin.
The average inflammation index is calculated for the control batch after 3 hours (It3) and after 5 hours (It5).
The percentage of inhibition of the oedema (anti-inflammatory activity) is calculated for each animal by means of the formulae: [formula] wherein: A3 =anti-inflammatory activity in percentage of inhibition of the oedema after 3 hours
A5 =anti-inflammatory activity in percentage of inhibition of the oedema after 5 hours.
The anti-inflammatory activity is proportional to the logarithm of the administered dose. The dose which reduces the volume of the odema by 25% is obtained from the curve of dose logarithm-% effect. This dose is adopted as ED-50, since the maximum effect which is achieved is the reduction of the oedema by 50%.

Test [2] relates to pain induced by acetyl choline. The test is described as follows: Analgesic activity with respect to the pain induced by acetyl choline (contortions), method of Collier. Type of test: in vivo, Male mice of the Swiss strain. Particulars: Mus musculus, po, dose which reduces the number of contortions to half the initial value. On the procedure:
Analgesic activity with respect to the pain induced by acetyl choline
Method developed by Collier (Collier, H. O. W. Dinneen, L. C. Johnson, C. A. and Schneider, C.--Br. J. Pharmac. Chemother., 32, 295-310 (1968)).
Male mice of the Swiss strain are used, weighing from 20 to 25 g. The mice are put into individual cages. A volume of 0.2 ml/20 g of a solution of acetyl choline bromide of 0.32 mg/ml is administered intraperitoneally to each animal. Thus, the injected dose of acetyl choline bromide is 3.2 mg/kg. The number of contortions or stretches performed by each mouse is counted over a period of 5 minutes. After 5 minutes, the products are administered using 5% gum arabic as a vehicle. After 40 and 120 minutes of administration of the products, another injection of acetyl choline is given and the number of contortions which are observed over a period of 5 minutes is counted.
The percentage of inhibition of the number of contortions after 40 and 120 minutes is calculated for each animal using the following formulae: [formula] wherein: NO =number of contortions before the product is administered
N40 =number of contortions 40 minutes after administration of the product
N120 =number of contortions 120 minutes after administration of the product.
The percentage of inhibition of the contortions is directly proportional to the logarithm of the administered dose. The dose which reduces the number of contortions to half the initial value (ED-50) is obtained from the curve of dose logarithm-% effect.

The target of test [3] is T1, prostaglandin-synthetase (1.14.99.1) (Bos taurus, UniProt O62664).
T1 construct: Prostaglandin-Synthetase of Seminal Vesicle of Cattle; from tissue; host or cells: seminal vesicle of cattle
T1 sequence (O62664 25-600): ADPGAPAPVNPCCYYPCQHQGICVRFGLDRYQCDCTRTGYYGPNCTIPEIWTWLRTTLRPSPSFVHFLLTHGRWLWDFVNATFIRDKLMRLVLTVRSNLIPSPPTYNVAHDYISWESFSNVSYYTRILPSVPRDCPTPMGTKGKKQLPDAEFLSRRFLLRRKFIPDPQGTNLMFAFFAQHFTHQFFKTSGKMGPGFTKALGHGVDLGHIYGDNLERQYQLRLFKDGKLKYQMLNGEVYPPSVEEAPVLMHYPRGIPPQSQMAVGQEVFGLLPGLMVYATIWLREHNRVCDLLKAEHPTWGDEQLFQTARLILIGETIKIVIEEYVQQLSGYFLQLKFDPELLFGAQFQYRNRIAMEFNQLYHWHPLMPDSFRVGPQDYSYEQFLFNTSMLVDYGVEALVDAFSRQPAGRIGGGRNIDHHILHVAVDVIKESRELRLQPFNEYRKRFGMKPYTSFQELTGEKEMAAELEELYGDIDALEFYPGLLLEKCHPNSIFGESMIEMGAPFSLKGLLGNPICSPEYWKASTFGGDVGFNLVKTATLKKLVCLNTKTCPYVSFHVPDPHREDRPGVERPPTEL
The test can be described thus: Inhibition of the prostaglandin-synthetase of seminal vesicle of cattle, method of Yoshimoto. Particulars: in vitro; 37° C., 5 minutes contact of enzyme with product, then 10 minutes incubation with arachidonic acid; pH 8.0. Type of test: biochemical.
Description: Inhibition of the Prostaglandin-Synthetase of Seminal Vesicle of Cattle
The activity of the prostaglandin-synthetase (1.14.99.1) is determined by measuring the increases in absorbance at 278 nm due to the formation of prostaglandin B from prostaglandin E in an alkaline medium.
The incubation temperature was 37±0.1° C. in every case.
0.5 ml of substrate solution (0.6 mg of arachidonic acid in 10 ml of buffer) and 0.5 ml of buffer are added to 1.5 ml of cofactor solution (0.55 mg of hydroquinone+0.5 mg of hemoglobin+7.7 mg of glutathione in 12 ml of 0.2M Tris-HCl buffer of pH 8.0), containing 10 mg of enzyme, and the mixture is incubated at 37° C. for 10 minutes. The enzymatic reaction is stopped by the addition of 1.5 ml of 0.2M citric acid and the pGE is extracted with 2×5 ml of ethyl acetate. The organic phase is evaporated under a stream of nitrogen at 40° C. and the residue is redissolved in 2 ml of methanol and 0.5 ml of 3M potassium hydroxide. Finally, the absorptions at 278 nm are measured with respect to a blank to which 0.5 ml of buffer are added instead of 0.5 ml of substrate solution.
The enzymatic activity is expressed as an increase in the optical density for 10 minutes of reaction.
The subsequent stages are identical to those which have already been described. […]

Where [4] appears, read: 3 hours after carrageenin injection, read-out: ED-50 3 hours.
The mark [5] stands for this setting: 5 hours after carrageenin injection, read-out: ED-50 5 hours.
Setting [6] is: 40 min, 40 minutes after administration, read-out: ED-50 40 min.
Setting [7] is: 2 h, 120 minutes after administration, read-out: ED-50 120 min.

In general, IC50 refers to the concentration that gives 50% inhibition.

Structures are written as SMILES. Where two headings read alike, the source gives them in different places. A value given as a limit tells only on which side of the number the result lay.

With `CCN1c2c(oc(=O)n(-c3ccccn3)c2=O)-c2ccccc2S1(=O)=O` [Example 1, 5-ethyl-3-(2-pyridyl)-2H,5H-1,3-oxazino[5,6-c][1,2]benzothiazine-2,4-(3H)dione-6,6-dioxide], the ED50 in test [1] (setting [4]) was above 40 mg/kg; in test [1] (setting [5]) it was above 40 mg/kg; in test [2] (setting [6]) it was above 160 mg/kg; in test [2] (setting [7]), above 160 mg/kg.
`CN1c2c(oc(=O)n(-c3ccccn3)c2=O)-c2ccccc2S1(=O)=O` [Example 2, 5-methyl-3-(2-pyridyl)-2H,5H-1,3-oxazino[5,6-c][1,2]benzothiazine-2,4-(3H)dione-6,6-dioxide] had a 50% inhibitory concentration (IC50) in test [3] of 100 µM. Besides, the ED50 in test [1] (setting [4]) came out at 2.3 mg/kg; in test [1] (setting [5]), 2.6 mg/kg; in test [2] (setting [6]), 1.8 mg/kg; in test [2] (setting [7]), 1.1 mg/kg.
Regarding `CN1c2c(oc(=S)n(-c3ccccn3)c2=O)-c2ccccc2S1(=O)=O` [Example 3, 5-methyl-3-(2-pyridyl)-2H,5H-1,3-oxazino[5,6-c][1,2]benzothiazine-2(3H)thione-4-one-6,6-dioxide], the ED50 is above 40 mg/kg in test [1] (setting [4]), above 40 mg/kg in test [1] (setting [5]), 25 mg/kg in test [2] (setting [6]) and 25 mg/kg in test [2] (setting [7]).
Turning to `Cc1cc(-n2c(=O)oc3c(c2=O)N(C)S(=O)(=O)c2ccccc2-3)no1` [Example 4, 5-methyl-3-[3-(5-methylisoxazolyl)]-2H,5H-1,3-oxazino[5,6-c][1,2]benzothiazine-2,4-(3H)dione-6,6-dioxide], the ED50 was found to be 38 mg/kg in test [1] (setting [4]), 39 mg/kg in test [1] (setting [5]), 154 mg/kg in test [2] (setting [6]) and 154 mg/kg in test [2] (setting [7]).
For the compound `CN1c2c(oc(=O)n(-c3ncccn3)c2=O)-c2ccccc2S1(=O)=O` [Example 5, 5-methyl-3-(2-pyrimidinyl)-2H,5H-1,3-oxazino[5,6-c][1,2]benzothiazine-2,4-(3H)dione-6,6-dioxide], the ED50 in test [1] (setting [4]) is above 40 mg/kg; in test [1] (setting [5]), above 40 mg/kg; in test [2] (setting [6]), above 160 mg/kg; in test [2] (setting [7]) it was above 160 mg/kg.
`Cc1ccnc(-n2c(=O)oc3c(c2=O)N(C)S(=O)(=O)c2ccccc2-3)c1` [Example 6, 5-methyl-3-[2-(4-methylpyridyl)]-2H,5H-1,3-oxazino[5,6-c][1,2]benzothiazine-2,4-(3H)dione-6,6-dioxide]: the ED50 is above 40 mg/kg in test [1] (setting [4]), above 40 mg/kg in test [1] (setting [5]), above 160 mg/kg in test [2] (setting [6]) and above 160 mg/kg in test [2] (setting [7]).
As to `Cc1cccc(-n2c(=O)oc3c(c2=O)N(C)S(=O)(=O)c2ccccc2-3)n1` [Example 7, 5-methyl-3-[2-(6-methylpyridyl)]-2H,5H-1,3-oxazino[5,6-c][1,2]benzothiazine-2,4-(3H)dione-6,6-dioxide], the ED50 in test [1] (setting [4]) was 20 mg/kg; in test [1] (setting [5]), 25 mg/kg; in test [2] (setting [6]) it was 7.5 mg/kg; in test [2] (setting [7]) it was 10 mg/kg.
Consider `CCCCC1C(=O)N(c2ccccc2)N(c2ccccc2)C1=O` [Phenylbutazone, reference compound], for which half-maximal inhibition in test [3] (IC50) was put at 300 µM. Further, the ED50 in test [1] (setting [4]) is 17 mg/kg; in test [1] (setting [5]), 17 mg/kg; in test [2] (setting [6]) it was 40 mg/kg; in test [2] (setting [7]), 35 mg/kg.
